Data reported in patent US20250144067A1, “PERSONALIZED STARVATION THERAPY FOR CANCER” (Faeth Therapeutics, Inc., priority 2021, published 2025).
Where a name gives a salt, the structure may show the parent alone. Read-outs that look alike come from different tables or passages of the source.

Experiments:
[1] = tested on: NCI-H292 lung cancer cells; experiment: FDA drug screening, complete media vs cholesterol-free media without statin (TABLE 1); type: cell-based, human
[2] = tested on: NCI-H292 lung cancer cells; experiment: FDA drug screening, complete media vs cholesterol-free media with simvastatin (TABLE 2); type: cell-based, human
[3] = NCI-H292 cells, cholesterol-free media without statin
[4] = complete vs cholesterol-free media, greater than 0 enhanced anti-cancer activity, about 0 neutral, below 0 antagonists
[5] = NCI-H292 cells, cholesterol-free media with simvastatin 0.04 μM, FDA drug library screen (TABLE 2)
[6] = NCI-H292 cells, complete media, FDA drug library screen (TABLE 2)
[7] = complete media minus cholesterol-free media + simvastatin (0.04 μM), >0 enhanced anti-cancer activity, about 0 neutral, <0 antagonist
[8] = Complete minus Cholesterol-free, >0 enhanced anti-cancer activity, about 0 neutral, <0 antagonist
[9] = NCI-H292 cells, cholesterol-free media without statin, FDA drug library screen
[10] = NCI-H292 cells, complete media, FDA drug library screen
[11] = NCI-H292 cells, FDA drug library screen, cholesterol-free media with simvastatin 0.04 μM
[12] = NCI-H292 cells, FDA drug library screen, complete media
[13] = complete media minus cholesterol-free media + simvastatin, >0 enhanced anti-cancer activity, about 0 neutral, <0 antagonist
[14] = NCI-H292 cells, FDA library drug in cholesterol-free media with simvastatin 0.04 μM
[15] = NCI-H292 cells, FDA library drug in complete media
[16] = complete media vs cholesterol-free media + simvastatin (0.04 μM), >0 enhanced anti-cancer activity, about 0 neutral, <0 antagonist
[17] = complete vs cholesterol-free media, >0 enhanced anti-cancer activity, about 0 neutral, <0 antagonist
[18] = Complete minus Cholesterol-free, greater than 0 enhanced anti-cancer activity, about 0 neutral, below 0 antagonists
[19] = NCI-H292 cells in cholesterol-free media without statin
[20] = NCI-H292 cells in complete media

Q: `C=CC(=O)N1CCC([C@@H]2CCNc3c(C(N)=O)c(-c4ccc(Oc5ccccc5)cc4)nn32)CC1` [Zanubrutinib] was tested. Which Cholesterol-free [1, 3] did it give?
A: 0.7894

Q: What about the Complete ([1]; NCI-H292 cells, complete media) of the same molecule?
A: 0.3496

Q: And the Difference [1, 4]?
A: −0.44

Q: And the “Cholesterol-free media + simvastatin (0.04 μM)” value [2, 5]?
A: 0.7245

Q: What about the “Complete Media” value [2, 6] of the same molecule?
A: 0.7031

Q: What about the Difference [2, 7] of the same molecule?
A: −0.02

Q: How did the Difference [1, 8] turn out when `NC(=O)NS(=O)(=O)c1ccc(N)cc1` [Sulfacarbamide] was run?
A: 0.04

Q: And the Cholesterol-free [1, 9]?
A: 0.9085

Q: What about the Complete [1, 10] of the same molecule?
A: 0.9465

Q: And the “Cholesterol-free media + simvastatin (0.04 μM)” value [2, 11]?
A: 0.9379

Q: What about the “Complete Media” value [2, 12] of the same molecule?
A: 1.144

Q: And the Difference [2, 13]?
A: 0.21

Q: What does the source list for `O=c1[nH]c(=O)n([C@H]2C[C@H](O)[C@@H](CO)O2)cc1/C=C/Br` [Brivudine]?
A: Cholesterol-free [1, 3]: 1.108; Complete ([1]; NCI-H292 cells, complete media): 0.7267; Difference [1, 4]: −0.38; Cholesterol-free media + simvastatin (0.04 μM) ([2]; NCI-H292 cells, cholesterol-free media with simvastatin 0.04 μM, cell growth value in FDA drug screen): 1.157; Complete Media ([2]; NCI-H292 cells, complete media, cell growth value in FDA drug screen): 1.26; Difference [2, 13]: 0.10

Q: `Cc1cc(/C=C/C#N)cc(C)c1Nc1ccnc(Nc2ccc(C#N)cc2)n1` [Rilpivirine] was tested. Which Difference [1, 8] did it give?
A: 0.06

Q: What about the Cholesterol-free [1, 9] of the same molecule?
A: 0.8235

Q: And the Complete [1, 10]?
A: 0.8865

Q: What about the “Cholesterol-free media + simvastatin (0.04 μM)” value [2, 14] of the same molecule?
A: 1.859

Q: What about the “Complete Media” value [2, 15] of the same molecule?
A: 1.359

Q: What about the Difference [2, 16] of the same molecule?
A: −0.50

Q: `CN(C)[C@@H]1C(O)=C(C(N)=O)C(=O)[C@@]2(O)C(O)=C3C(=O)c4c(O)cccc4[C@@](C)(O)[C@H]3[C@H](O)[C@@H]12` [Oxytetracycline] was tested. Which Cholesterol-free [1, 9] did it give?
A: 0.9301

Q: What about the Complete [1, 10] of the same molecule?
A: 1.086

Q: What about the Difference [1, 17] of the same molecule?
A: 0.16

Q: And the “Cholesterol-free media + simvastatin (0.04 μM)” value [2, 14]?
A: 2.284

Q: And the “Complete Media” value [2, 15]?
A: 1.447

Q: What about the Difference [2, 16] of the same molecule?
A: −0.84

Q: For `CC(C)OC(=O)CCC/C=C\C[C@@H]1[C@@H](CC[C@@H](O)CCc2ccccc2)[C@H](O)C[C@@H]1O` [Latanoprost], which Difference [1, 18] is on record?
A: −0.48

Q: And the Cholesterol-free [1, 19]?
A: 1.483

Q: What about the Complete [1, 20] of the same molecule?
A: 1.005

Q: What about the “Cholesterol-free media + simvastatin (0.04 μM)” value [2, 5] of the same molecule?
A: 1.031

Q: What about the “Complete Media” value [2, 6] of the same molecule?
A: 0.9769

Q: What about the Difference [2, 7] of the same molecule?
A: −0.05

Q: For `O=c1[nH]ccc2c(S(=O)(=O)N3CCCNCC3)cccc12` [Hydroxyfasudil (hydrochloride)], which Cholesterol-free [1] is on record?
A: 1.045

Q: What about the Complete [1] of the same molecule?
A: 0.7884

Q: And the Difference [1]?
A: −0.26

Q: And the “Cholesterol-free media + simvastatin (0.04 μM)” value [2]?
A: 0.8461

Q: What about the “Complete Media” value [2] of the same molecule?
A: 0.9788

Q: What about the Difference [2] of the same molecule?
A: 0.13

Q: `Cc1ncc(CO)c(CO)c1O.O=C1CC[C@@H](C(=O)O)N1` [Metadoxine] was tested. Which Difference ([1]; Complete minus Cholesterol-free, […]) did it give?
A: −0.12

Q: And the Cholesterol-free ([1]; NCI-H292 cells, FDA drug library screen, cholesterol-free media without statin)?
A: 1.129

Q: What about the Complete [1, 12] of the same molecule?
A: 1.01

Q: What about the “Cholesterol-free media + simvastatin (0.04 μM)” value [2, 11] of the same molecule?
A: 1.163

Q: And the “Complete Media” value [2, 12]?
A: 1.057

Q: What about the Difference ([2]; complete media vs cholesterol-free media + simvastatin (0.04 μM), […]) of the same molecule?
A: −0.11

Q: With `O=C(O)[C@H](O)[C@@H](O)[C@H](O)[C@H](O)CO` [D-Gluconic acid] as the molecule, how does the Cholesterol-free [1] read?
A: 1.845

Q: What about the Complete [1] of the same molecule?
A: 1.115

Q: What about the Difference [1] of the same molecule?
A: −0.73

Q: And the “Cholesterol-free media + simvastatin (0.04 μM)” value [2]?
A: 1.103

Q: What about the “Complete Media” value [2] of the same molecule?
A: 0.9995

Q: And the Difference [2]?
A: −0.10

Q: With `O=c1c(-c2ccc(O)cc2)coc2cc(O)ccc12` [Daidzein] as the molecule, how does the Difference [1, 8] read?
A: −0.02

Q: And the Cholesterol-free [1, 9]?
A: 1.1

Q: And the Complete [1, 10]?
A: 1.082

Q: What about the “Cholesterol-free media + simvastatin (0.04 μM)” value [2, 11] of the same molecule?
A: 1.306

Q: What about the “Complete Media” value [2, 12] of the same molecule?
A: 1.614

Q: And the Difference [2, 13]?
A: 0.31

Q: Which Cholesterol-free [1, 9] does the source give for `O=C(OCc1ccccc1)c1ccccc1` [Benzyl benzoate] here?
A: 0.6319

Q: And the Complete [1, 10]?
A: 1.132

Q: And the Difference [1, 17]?
A: 0.50

Q: What about the “Cholesterol-free media + simvastatin (0.04 μM)” value [2, 5] of the same molecule?
A: 0.8319

Q: What about the “Complete Media” value [2, 6] of the same molecule?
A: 0.7979

Q: And the Difference [2, 7]?
A: −0.03

Q: How did the Difference [1, 18] turn out when `OC[C@H]1O[C@@](CO)(O[C@H]2O[C@H](CO)[C@@H](O)[C@H](O)[C@H]2O)[C@@H](O)[C@@H]1O` [Sucrose] was run?
A: −0.74

Q: What about the Cholesterol-free [1, 19] of the same molecule?
A: 1.582

Q: And the Complete [1, 20]?
A: 0.843

Q: And the “Cholesterol-free media + simvastatin (0.04 μM)” value [2, 14]?
A: 1.867

Q: And the “Complete Media” value [2, 15]?
A: 0.9772

Q: And the Difference [2, 16]?
A: −0.89

Q: What does the source list for `CC1(C)OC[C@@H](COC(=O)CCc2ccc(OC[C@@H](O)CNCCNC(=O)N3CCOCC3)cc2)O1` [Landiolol (hydrochloride)]?
A: Cholesterol-free [1, 3]: 1.352; Complete ([1]; NCI-H292 cells, complete media): 0.8842; Difference [1, 4]: −0.47; Cholesterol-free media + simvastatin (0.04 μM) [2, 11]: 1.311; Difference [2, 16]: −0.14
